Numbered stars: 1 amine (or outer) side, 2 acyl side, 3 side chain; on linkers, the order of the positions; unused ones are H or OH. Peptide text beside a SMILES is read from it. * marks the point of attachment. pNA = O=[N+]([O-])c1ccc(N*)cc1; Suc = O=C(CCC(=O)[*:2])[*:1]; Cbz = O=C(OCc1ccccc1)*
tested on: P. gingivalis DPP-7; test: Kinetic analysis of p-nitroanilide substrate cleavage by DPP-7; type: biochemical, Porphyromonas gingivalis; conditions: 0.2 M HEPES, pH 7.8, 37° C.
Method: Kinetic Analysis—Routinely, the dipeptidylpeptidase amidolytic activity was measured with H-Ala-Phe-pNA (1 mM) in 0.2 M HEPES, pH 7.8 at 37° C. The reaction was followed for specific time intervals in a thermostated ELISA reader (SpectraMax, Applied Biosystem) and the release of p-nitroaniline was monitored at 405 nm. Other p-nitroanilide substrates were used in the same manner. For inhibition studies, the enzyme was first preincubated with an inhibitor for 15 minutes at 37° C., substrate added, and residual activity recorded. The initial steady-state velocity (v0) was determined by continuous assay for the range of substrate concentrations (100 nM to 1 mM). Km and Vmax were determined by hyperbolic regression of the kinetic data using the software package Hyper Version 1.02 obtained from Dr. J. S. Easterby (University of Liverpool, UK).
Substrate Specificity—Among several chromogenic substrates tested, only those with an aliphatic or an aromatic side chain residues in the second, penultimate position were rapidly hydrolyzed by DPP-7 (Table 2).

Molecule | Km [µM] | Vmax
CC(N)C(=O)NC(C)C(=O)Nc1ccc([N+](=O)[O-])cc1.Cl (stereo not drawn) [H-Ala-Ala-pNA] (H-Ala-Ala-pNA; configuration not given here) | 313 | 129.65
C[C@H](N)C(=O)N[C@@H](Cc1ccccc1)C(=O)Nc1ccc([N+](=O)[O-])cc1 [H-Ala-Phe-pNA] | 441 | 170.06
NCC(=O)NC(Cc1ccccc1)C(=O)Nc1ccc([N+](=O)[O-])cc1 (stereo not drawn) [H-Gly-Phe-pNA] | 256 | 54.54

same assay, conditions: p-nitroanilide substrates

Molecule | hydrolysis of chromogenic substrate by DPP-7
NC(N)=NCCCC(NC(=O)c1ccccc1)C(=O)Nc1ccc([N+](=O)[O-])cc1 (racemic) [Nα-benzoyl-DL-arginine-pNA] | none of these was hydrolysed
C[C@H](N)C(=O)N[C@@H](C)C(=O)N[C@@H](Cc1ccccc1)C(=O)Nc1ccc([N+](=O)[O-])cc1 [H-Ala-Ala-Phe-pNA] (H-Ala-Ala-Phe-pNA) | none of these was hydrolysed
C[C@H](N)C(=O)NCC(=O)N[C@@H](CCCNC(=N)N)C(=O)Nc1ccc([N+](=O)[O-])cc1 [H-Ala-Gly-Arg-pNA] (H-Ala-Gly-Arg-pNA) | none of these was hydrolysed
C[C@H](N)C(=O)NCC(=O)Nc1ccc([N+](=O)[O-])cc1 [H-Ala-Gly-pNA] (H-Ala-Gly-pNA) | none of these was hydrolysed
C[C@H](N)C(=O)N[C@@H](Cc1ccccc1)C(=O)N1CCC[C@H]1C(=O)Nc1ccc([N+](=O)[O-])cc1 [H-Ala-Phe-Pro-pNA] (H-Ala-Phe-Pro-pNA) | none of these was hydrolysed
C[C@H](N)C(=O)N1CCC[C@H]1C(=O)Nc1ccc([N+](=O)[O-])cc1 [H-Ala-Pro-pNA] (H-Ala-Pro-pNA) | none of these was hydrolysed
C[C@H](N)C(=O)Nc1ccc([N+](=O)[O-])cc1 [H-Ala-pNA] | none of these was hydrolysed
NCC(=O)N[C@@H](CCCN=C(N)N)C(=O)Nc1ccc([N+](=O)[O-])cc1 [H-Gly-Arg-pNA] (H-Gly-Arg-pNA) | none of these was hydrolysed
NCC(=O)N[C@@H](CCC(=O)O)C(=O)Nc1ccc([N+](=O)[O-])cc1 [H-Gly-Glu-pNA] (H-Gly-Glu-pNA) | none of these was hydrolysed
NCC(=O)NCC(=O)Nc1ccc([N+](=O)[O-])cc1 [H-Gly-Gly-pNA] (H-Gly-Gly-pNA) | none of these was hydrolysed
NCCCC[C@H](NC(=O)CN)C(=O)Nc1ccc([N+](=O)[O-])cc1 [H-Gly-Lys-pNA] (H-Gly-Lys-pNA) | none of these was hydrolysed
NCC(=O)Nc1ccc([N+](=O)[O-])cc1 [H-Gly-pNA] | none of these was hydrolysed
CC[C@H](C)[C@H](N)C(=O)Nc1ccc([N+](=O)[O-])cc1 [H-Ile-pNA] | none of these was hydrolysed
CC(C)C[C@H](N)C(=O)N[C@H](C(=O)N[C@@H](CCCNC(=N)N)C(=O)Nc1ccc([N+](=O)[O-])cc1)[C@@H](C)O [H-Leu-Thr-Arg-pNA] (H-Leu-Thr-Arg-pNA) | none of these was hydrolysed
CC(C)C[C@H](N)C(=O)Nc1ccc([N+](=O)[O-])cc1 [H-Leu-pNA] | none of these was hydrolysed
Br.Br.NCCCC[C@H](N)C(=O)Nc1ccc([N+](=O)[O-])cc1 [H-Lys-pNA] | none of these was hydrolysed

Molecule | hydrolysis of chromogenic substrate by DPP-7
N[C@@H](Cc1ccccc1)C(=O)Nc1ccc([N+](=O)[O-])cc1 [H-Phe-pNA] | none of these was hydrolysed
C[C@H](NC(=O)CCC(=O)O)C(=O)N[C@@H](C)C(=O)N1CCC[C@H]1C(=O)N[C@@H](CCC(=O)O)C(=O)Nc1ccc([N+](=O)[O-])cc1 [N-suc-Ala-Ala-Pro-Glu-pNA] (Suc-AAPE-pNA) | none of these was hydrolysed
CC(C)C[C@H](NC(=O)[C@@H]1CCCN1C(=O)[C@H](C)NC(=O)[C@H](C)NC(=O)CCC(=O)O)C(=O)Nc1ccc([N+](=O)[O-])cc1 [N-suc-Ala-Ala-Pro-Leu-pNA] (Suc-AAPL-pNA) | none of these was hydrolysed
CC(C)[C@H](NC(=O)[C@H](C)NC(=O)[C@H](C)NC(=O)CCC(=O)O)C(=O)N[C@@H](C)C(=O)Nc1ccc([N+](=O)[O-])cc1 [N-suc-Ala-Ala-Val-Ala-pNA] (Suc-AAVA-pNA) | none of these was hydrolysed
C[C@H](NC(=O)CCC(=O)O)C(=O)N[C@@H](C)C(=O)Nc1ccc([N+](=O)[O-])cc1 [N-suc-Ala-Ala-pNA] (Suc-Ala-Ala-pNA) | none of these was hydrolysed
C[C@H](NC(=O)OCc1ccccc1)C(=O)N[C@@H](C)C(=O)Nc1ccc([N+](=O)[O-])cc1 [Z-Ala-Ala-pNA] (Cbz-Ala-Ala-pNA) | none of these was hydrolysed
N=C(N)NCCC[C@H](NC(=O)OCc1ccccc1)C(=O)Nc1ccc([N+](=O)[O-])cc1 [Z-Arg-pNA] | none of these was hydrolysed
O=C(O)CC[C@H](NC(=O)OCc1ccccc1)C(=O)N[C@@H](CCC(=O)O)C(=O)Nc1ccc([N+](=O)[O-])cc1 [Z-Glu-Glu-pNA] (Cbz-Glu-Glu-pNA) | none of these was hydrolysed
CC(C)C[C@H](NC(=O)OCc1ccccc1)C(=O)N[C@@H](CC(C)C)C(=O)N[C@@H](CCC(=O)O)C(=O)Nc1ccc([N+](=O)[O-])cc1 [Z-Leu-Leu-Glu-pNA] (Cbz-Leu-Leu-Glu-pNA) | none of these was hydrolysed
N=C(N)NCCC[C@H](NC(=O)[C@H](CCCCN)NC(=O)OCc1ccccc1)C(=O)Nc1ccc([N+](=O)[O-])cc1 [Z-Lys-Arg-pNA] (Cbz-Lys-Arg-pNA) | none of these was hydrolysed
NCCCC[C@H](NC(=O)OCc1ccccc1)C(=O)Nc1ccc([N+](=O)[O-])cc1 [Z-Lys-pNA] | none of these was hydrolysed
NC(N)=NCCC[C@H](NC(=O)[C@H](Cc1ccccc1)NC(=O)OCc1ccccc1)C(=O)Nc1ccc([N+](=O)[O-])cc1 [Z-Phe-Arg-pNA] (Cbz-Phe-Arg-pNA) | none of these was hydrolysed
CC(C)[C@H](NC(=O)[C@H](Cc1ccccc1)NC(=O)OCc1ccccc1)C(=O)N[C@@H](CCCNC(=N)N)C(=O)Nc1ccc([N+](=O)[O-])cc1 [Z-Phe-Val-Arg-pNA] (Cbz-Phe-Val-Arg-pNA) | none of these was hydrolysed
NCCCC[C@H](NC(=O)[C@H](Cc1ccc(O)cc1)NC(=O)OCc1ccccc1)C(=O)N[C@@H](CCCN=C(N)N)C(=O)Nc1ccc([N+](=O)[O-])cc1 [Z-Tyr-Lys-Arg-pNA] (Cbz-Tyr-Lys-Arg-pNA) | none of these was hydrolysed
N-met-Ala-Pro-Val-pNA | none of these was hydrolysed

tested on: P. gingivalis DPP-7; test: not given; type: biochemical, Porphyromonas gingivalis; conditions: not given

Molecule | % of residual activity [%] | inactivation of / influence on DPP-7 activity (in words)
c1cnc2c(c1)ccc1cccnc12 [1,10-orthophenanthroline] | 98 | did not influence its activity
O=c1oc(Cl)c(Cl)c2ccccc12 [3,4-dichloroisocoumarin] | 0 | inactivated
C[C@H](N)C(=O)NCC(=O)O [Ala-Gly] (H-Ala-Gly-OH) | 96 | –
